From US7244713B2, “Nucleoside compounds for treating viral infections” (Genelabs Technologies, Inc., priority 2003, dated 2007)

Tests used:
[1] = tested on: HCV replicon in ET (Huh-lucubineo-ET) cell line; assay: Replicon assay (luciferase, ET cells); type: cell-based, hepatitis C virus
Protocol: A cell line, ET (Huh-lucubineo-ET) is used for screening of compounds of the present invention for HCV RNA dependent RNA polymerase. The ET cell line is stably transfected with RNA transcripts harboring a I389luc-ubi-neo/NS3-3′/ET; replicon with firefly luciferase-ubiquitin-neomycin phosphotransferase fusion protein and EMCV-IRES driven NS3-5B polyprotein containing the cell culture adaptive mutations (E1202G; T1280I; K1846T) (Krieger at al, 2001 and unpublished). The ET cells are grown in DMEM, supplemented with 10% fetal calf serum, 2 mM Glutamine, Penicillin (100 IU/mL)/Streptomycin (100 μg/mL), 1× nonessential amino acids, and 250 μg/mL G418 (“Geneticin”). They are all available through Life Technologies (Bethesda, Md.). The cells are plated at 0.5-1.0×10^4 cells/well in the 96 well plates and incubated for 24 hrs before adding nucleoside analogs. Then the compounds were added to the cells to achieve a final concentration of 50 or 100 μM, or whatever concentration is desired. For these determinations, 6 dilutions of each compound are used. Compounds are typically diluted 3 fold to span a concentration range of 250 fold. Luciferase activity will be measured 48-72 hours later by adding a lysis buffer and the substrate (Catalog number Glo-lysis buffer E2661 and Bright-Glo leuciferase system E2620 Promega, Madison, Wis.). Cells should not be too confluent during the assay. Percent inhibition of replication will be plotted relative to no compound control. Under the same condition, cytotoxicity of the compounds will be determined using cell proliferation reagent, WST-1 (Roche, Germany). IC50 and TC50 values are calculated by fitting % inhibition at each concentration to the following equation, where b is Hill's coefficient: % inhibition=100%/[(IC50/[I])^b+1]

[2] = currently recommended doses; cited from earlier work
HCV-NS5b = target: T1, HCV-NS5b (Hepatitis C virus genotype 1b, UniProt Q9WMX2); assay: HCV-NS5b enzyme assay; type: biochemical
T1 construct: The cloned fragment is missing the C terminus 21 amino acid residues; (His)6 (C); made in house; host or cells: XL-1 cells (E. coli, IPTG-inducible plasmid)
Description: The coding sequence of NS5b protein is cloned by PCR from pFKI389luc/NS3-3′/ET as described by Lohmann, V., et al. (1999) Science 285, 110-113 using the following primers: […]
The cloned fragment is missing the C terminus 21 amino acid residues. The cloned fragment is inserted into an IPTG-inducible expression plasmid that provides an epitope tag (His)6 at the carboxy terminus of the protein.
The recombinant enzyme is expressed in XL-1 cells and after induction of expression, the protein is purified using affinity chromatography on a nickel-NTA column. Storage condition is 10 mM Tris-HCl pH 7.5, 50 mM NaCl, 0.1 mM EDTA, 1 mM DTT, 20% glycerol at −20° C.
The polymerase activity is assayed by measuring incorporation of radiolabeled UTP into a RNA product using a biotinylated, heteropolymeric template, which includes a portion of the HCV genome. Typically, the assay mixture (50 μL) contains 10 mM Tris-HCl (pH 7.5), 5 mM MgCl2, 0.2 mM EDTA, 10 mM KCl, 1 unit/μL RNAsin, 1 mM DTT, 10 μM each of NTP, including [^3H]-UTP, and 10 ng/μL heteropolymeric template. Test compounds are initially dissolved in 100% DMSO and further diluted in aqueous buffer containing 5% DMSO. Typically, compounds are tested at concentrations between 1 nM and 100 μM. Reactions are started with addition of enzyme and allowed to continue at 37° C. for 2 hours. Reactions are quenched with 8 μL of 100 mM EDTA and reaction mixtures (30 μL) are transferred to streptavidin-coated scintillation proximity microtiter plates (FlashPlates) and incubated at 4° C. overnight. Incorporation of radioactivity is determined by scintillation counting.

HCV = details: treatment of HCV, long term efficacy; cited from earlier work

In the case of `CO/C=C\c1cn([C@@H]2O[C@H](CO)[C@@H](O)[C@@]2(C)O)c2ncnc(N)c12` [Cmpd 158, 7-(2′-C-methyl-β-D-ribofuranosyl)-4-amino-5-(2-cis-methoxy-ethen-1-yl)-pyrrolo[2,3-d]pyrimidine], the “Replicon, % inhibition @100 μM” value ([1]; 100 μM) is reported as 62.4% and the inhibition at 100 µM ([1]; Hepatitis C virus, 100 μM) is reported as 78.6%.
`C[C@@]1(O)C(O)C(CO)OC1n1cc(C=NO)c2c(N)ncnc21` (stereo in doubt) [Cmpd 173, 7-(2′-C-methyl-β-D-ribofuranosyl)-4-amino-5-(carbaldehyde oxime)-pyrrolo[2,3-d]pyrimidine] showed an inhibition at 50 µM ([1]; Hepatitis C virus, 50 μM) of 76.7% and an inhibition at 100 µM ([1]; Hepatitis C virus, 100 μM) of 86.9%.
With `C[C@@]1(O)[C@H](O)[C@@H](CO)O[C@H]1n1cc(C#Cc2ccccc2)c2c(N)ncnc21` [Cmpd 145, 7-(2′-C-methyl-β-D-ribofuranosyl)-4-amino-5-(2-phenylethyn-1-yl)-pyrrolo[2,3-d]pyrimidine] the inhibition at 50 µM ([1]; Hepatitis C virus, 50 μM) was 90.7% and the inhibition at 100 µM ([1]; Hepatitis C virus, 100 μM) was 91.8%.
In the case of `NC(=O)c1ncn([C@@H]2O[C@H](CO)[C@@H](O)[C@H]2O)n1` [Ribavirin, 1-β-D-ribofuranosyl-1H-1,2,-4-triazole-3-carboxamide], the “patients with significant hemolysis” value [2] is given as 10-20%.
With `C[C@@]1(O)[C@H](O)[C@@H](COP(=O)(O)OP(=O)(O)OP(=O)(O)O)O[C@H]1n1cc(C#Cc2ccccc2)c2c(N)ncnc21` [Cmpd 154, 7-(2′-C-methyl-5′-triphospho-β-D-ribofuranosyl)-4-amino-5-(2-phenylethyn-1-yl)-pyrrolo[2,3-d]pyrimidine] the inhibition at 16.7 µM (HCV-NS5b; 16.7 μM, read-out: Enzyme, % inhibition @Con 2) was 10.9% and the inhibition at 50 µM (HCV-NS5b; 50 μM, read-out: Enzyme, % inhibition @Con 1) was 19.2%.
With `C[C@@]1(O)[C@H](O)[C@@H](CO)O[C@H]1n1cc(C=O)c2c(N)ncnc21` [Cmpd 165, 7-(2′-C-methyl-β-D-ribofuranosyl)-4-amino-5-(formyl)-pyrrolo[2,3-d]pyrimidine] the inhibition at 50 µM ([1]; Hepatitis C virus) was 96.8% and the inhibition at 100 µM ([1]; Hepatitis C virus) was 95.9%.
For `CCOC(=O)C#Cc1cn([C@@H]2O[C@H](CO)[C@@H](O)[C@@]2(C)O)c2ncnc(N)c12` [Cmpd 137, 7-(2′-C-methyl-β-D-ribofuranosyl)-4-amino-5-[(ethyl 2-carboxyl)ethyn-1-yl]-pyrrolo[2,3-d]pyrimidine], the inhibition at 50 µM ([1]; Hepatitis C virus, 50 μM) was 98.1% and the inhibition at 100 µM ([1]; Hepatitis C virus, 100 μM) was 97.6%.
Work on `C[C@@]1(O)[C@H](O)[C@@H](CO)O[C@H]1n1cc(C#C[Si](C)(C)C)c2c(N)ncnc21` [Cmpd 101, 7-(2′-C-methyl-β-D-ribofuranosyl)-4-amino-5-(2′-trimethylsilylethyn-1-yl)-pyrrolo[2,3-d]pyrimidine] yielded an inhibition at 50 µM ([1]; Hepatitis C virus) of 98.1% and an inhibition at 100 µM ([1]; Hepatitis C virus) of 98.5%.
Work on `C[C@@]1(O)[C@H](O)[C@@H](COP(=O)(O)OP(=O)(O)OP(=O)(O)O)O[C@H]1n1cc(C=O)c2c(N)ncnc21` [Cmpd 168, 7-(2′-C-methyl-5′-triphospho-β-D-ribofuranosyl)-4-amino-5-(formyl)-pyrrolo[2,3-d]pyrimidine] yielded an inhibition at 7.7 µM (HCV-NS5b; 7.7 μM, read-out: Enzyme, % inhibition @Con 2) of 92% and an inhibition at 23.1 µM (HCV-NS5b; 23.1 μM, read-out: Enzyme, % inhibition @Con 1) of 96%.
With `C[C@@]1(O)[C@H](O)[C@@H](COP(=O)(O)O)O[C@H]1n1cc(C=O)c2c(N)ncnc21` [Cmpd 166, 7-(2′-C-methyl-5′-phospho-β-D-ribofuranosyl)-4-amino-5-(formyl)-pyrrolo[2,3-d]pyrimidine] the inhibition at 16.7 µM ([1]; Hepatitis C virus, 16.7 μM, second test) was 96.6% and the inhibition at 50 µM ([1]; Hepatitis C virus, 50 μM) was 97%.
Compound `C=Cc1cn([C@@H]2O[C@H](CO)[C@@H](O)[C@@]2(C)O)c2ncnc(N)c12` [Cmpd 157, 7-(2′-C-methyl-β-D-ribofuranosyl)-4-amino-5-(ethen-1-yl)-pyrrolo[2,3-d]pyrimidine] has an inhibition at 50 µM ([1]; Hepatitis C virus, 50 μM) of 89% and an inhibition at 100 µM ([1]; Hepatitis C virus, 100 μM) of 95%.
In the case of `C[C@@]1(O)C(O)C(CO)OC1n1cc(B(O)O)c2c(N)ncnc21` (stereo in doubt) [Cmpd 181, 7-(2′-C-methyl-β-D-ribofuranosyl)-4-amino-5-(boronic acid)-pyrrolo[2,3-d]pyrimidine], the inhibition at 50 µM ([1]; Hepatitis C virus, 50 μM) is reported as 98.2% and the inhibition at 100 µM ([1]; Hepatitis C virus, 100 μM) is reported as 98.1%.
Work on `C[C@@]1(O)C(O)C(CO)OC1n1cc(C#CC(N)=O)c2c(N)ncnc21` (stereo in doubt) [Cmpd 105, 7-(2′-C-methyl-β-D-ribofuranosyl)-4-amino-5-(2-carboxamidoethyn-1-yl)-pyrrolo[2,3-d]pyrimidine] yielded an inhibition at 50 µM ([1]; Hepatitis C virus, 50 μM) of 69.6% and an inhibition at 100 µM ([1]; Hepatitis C virus, 100 μM) of 89.1%.
Compound `C[C@@]1(O)[C@H](O)[C@@H](CO)O[C@H]1n1cc(C#CC(=O)O)c2c(N)ncnc21` [Cmpd 133, 7-(2′-C-methyl-β-D-ribofuranosyl)-4-amino-5-(2-carboxyethyn-1-yl)-pyrrolo[2,3-d]pyrimidine] has an inhibition at 50 µM ([1]; Hepatitis C virus, 50 μM) of 92.3% and an inhibition at 100 µM ([1]; Hepatitis C virus, 100 μM) of 96.7%.
Compound `C[C@@]1(O)C(O)C(CO)OC1n1cc(/C=N/N)c2c(N)ncnc21` (stereo partly drawn) [Cmpd 169, 7-(2′-C-methyl-β-D-ribofuranosyl)-4-amino-5-(hydrazono)-pyrrolo[2,3-d]pyrimidine] has an inhibition at 50 µM ([1]; Hepatitis C virus, 50 μM) of 80.7% and an inhibition at 100 µM ([1]; Hepatitis C virus, 100 μM) of 89.6%.
`CCOC(C#Cc1cn(C2OC(CO)C(O)[C@@]2(C)O)c2ncnc(N)c12)OCC` (stereo in doubt) [Cmpd 106, 7-(2′-C-methyl-β-D-ribofuranosyl)-4-amino-5-[(3,3-diethoxy)proparg-1-yl]-pyrrolo[2,3-d]pyrimidine] gave an inhibition at 50 µM ([1]; Hepatitis C virus, 50 μM) of 95.5% and an inhibition at 100 µM ([1]; Hepatitis C virus, 100 μM) of 95.6%.
In the case of interferon, the response rate (HCV) is given as “about 25%”.
